From patent EP3723746B1, “PHENOXY ACIDS FOR THE TREATMENT OF NEUROMUSCULAR DISORDERS” (NMD Pharma A/S, priority 2017, dated 2019) come the findings set out here.

The target in this assay is T1, human CIC-1 channels (Homo sapiens, UniProt P35523).
T1 construct: host or cells: CHO cells constitutively expressing human ClC-1
The assay is described as follows: Automated patch-clamp on the human isoform of CIC-1 expressed in CHO cells. Format: cell-based. To be noted: compound added intracellularly vs control cell patches; positive shift reflects CIC-1 inhibition. As to the method:
The investigatory goal of these experiments was to evaluate how compounds affect the open probability and current amplitude of human CIC-1 channels expressed in CHO cells. Experiments were performed using an automated patch clamp system that allowed high throughput testing of whole cell patches together with both intracellular and extracellular addition of compound.
Automated whole cell patch clamp experiments were performed with the Qpatch 16 system (Sophion Bioscience, Ballerup, Denmark) at room temperature. Data acquisition and analysis were performed in the Qassay software (ver. 5.6, Odense).
To evoke CIC-1 currents in whole cell patches, the membrane potential was initially stepped from a holding potential of -30 mV to +60 mV for 100 ms and then to various test voltages (sweeps) ranging from +120 mV to -140 mV in steps of 20 mV for 300 ms. To obtain tail currents, the membrane potential was stepped to -100 mV after each test voltage for 300 ms and then relaxed to -30 mV for 2 sec between sweeps (Figure 3). I/V relationships for whole cell instant and steady state current amplitudes were obtained by plotting average current densities at the beginning and at the end of the 300 ms step against the membrane potential (Figure 4).
In order to determine the relative overall open probability (P0), the instantaneous tail currents were normalized to the maximal tail current obtained following the most positive voltage step and plotted against the test voltage. Plots of normalized tail currents from each whole cell patch were then fitted to a Boltzmann function allowing determination of half activation voltages (V1/2, Figure 5).
For automated patch clamp experiments extracellular solutions contained: 2 mM CaCl2, 1 mM MgCl2, 10 mM HEPES, 4 mM KCI, 145 mM NaCl, 10 mM Glucose, pH adjusted to 7.4 with NaOH (2 M). Osmolality adjusted to ~320 using sucrose.
Intracellular solutions contained: 80 mM CsF, 60 mM CsCI, 5/1 mM KOH/EGTA, 10 mM HEPES, 10 mM NaCl, pH adjusted to 7.2 with NaOH (2 M). Osmolality adjusted to ~320 mOsm using sucrose.
Cells used in patch clamp experiments were Chinese hamster ovary cells (CHO) constitutively expressing human CIC-1 channels. The amino acid sequence encoded by the cDNA used to create this cell line was identical to the translated sequence for GenBank accession number NM_000083.2. Cells were produced by Charles River (Catalogue CT6175, Cleveland OH, USA) in a cryopreserved format. Experiments were performed on the cells directly after thawing (3 × 10^6 cells used in each experiment).
To evaluate the compound effect on CIC-1, when applied directly to the intracellular side of the cell membrane, the half activation voltage, V1/2, was determined from whole cell patches with compound added to the intracellular solution and then compared to V1/2 determined from control cell patches with only vehicle added to the intracellular solution. Additionally, the effect of extracellular added compound was evaluated by determine V1/2 and steady state current amplitudes before and after exchanging the extracellular solution to contain compound.
The difference in half activation voltage of CIC-1 channels, ΔV1/2, was determined as the difference between the cell patches treated intracellularly with compound and control cells patches and is reported in Table 4 below. A positive shift in ΔV1/2 is reflecting CIC-1 channel inhibition by the tested compound. P-values of <0.05 is considered significant. […]
For orientation: Patch clamp records ionic current or voltage across a cell membrane.

T1 sequence (P35523 whole entry): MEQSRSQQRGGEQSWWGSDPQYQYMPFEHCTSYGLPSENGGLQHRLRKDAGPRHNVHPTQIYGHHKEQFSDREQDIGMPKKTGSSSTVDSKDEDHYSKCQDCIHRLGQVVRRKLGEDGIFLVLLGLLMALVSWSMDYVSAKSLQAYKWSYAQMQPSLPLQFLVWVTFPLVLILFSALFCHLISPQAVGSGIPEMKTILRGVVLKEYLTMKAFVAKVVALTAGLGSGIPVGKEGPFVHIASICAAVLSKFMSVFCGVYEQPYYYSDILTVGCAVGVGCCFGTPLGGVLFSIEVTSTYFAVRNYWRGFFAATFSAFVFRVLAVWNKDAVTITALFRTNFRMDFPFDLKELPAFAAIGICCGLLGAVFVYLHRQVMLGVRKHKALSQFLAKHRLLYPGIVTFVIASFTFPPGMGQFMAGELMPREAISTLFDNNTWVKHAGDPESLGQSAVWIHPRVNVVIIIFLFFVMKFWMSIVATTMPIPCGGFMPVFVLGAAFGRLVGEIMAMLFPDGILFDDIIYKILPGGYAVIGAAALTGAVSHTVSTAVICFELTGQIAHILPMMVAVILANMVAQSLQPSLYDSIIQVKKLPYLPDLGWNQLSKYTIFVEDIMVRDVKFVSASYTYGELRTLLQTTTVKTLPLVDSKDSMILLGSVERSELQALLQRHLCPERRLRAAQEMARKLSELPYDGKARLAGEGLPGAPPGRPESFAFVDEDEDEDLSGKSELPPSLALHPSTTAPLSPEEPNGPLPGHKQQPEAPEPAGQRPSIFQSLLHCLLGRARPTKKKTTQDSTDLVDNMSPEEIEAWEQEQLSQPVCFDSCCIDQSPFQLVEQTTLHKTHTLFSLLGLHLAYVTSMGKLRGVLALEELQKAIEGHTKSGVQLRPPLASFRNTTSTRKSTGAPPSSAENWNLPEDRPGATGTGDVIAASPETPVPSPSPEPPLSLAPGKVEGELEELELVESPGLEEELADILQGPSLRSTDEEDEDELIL

Consider `C#Cc1cc(Br)ccc1O[C@@H](C)C(=O)O` [Compound A-19, (2S)-2-(4-bromo-2-ethynylphenoxy)propanoic acid], for which the ΔV1/2 worked out at 7.7 mV.
